Assays:
RAGE-C1q binding = target: T1, RAGE-C1q binding (Homo sapiens, UniProt P02745+P02746+P02747); experiment: ELISA-like C1q-sRAGE binding assay in presence of test substance; details: for ability of known RAGE ligands to block C1q binding to immobilized sRAGE: data not shown; for effect on C1q binding to immobilized sRAGE (RAGE-C1q interaction): 0-2 mM compound with 2 μg/ml C1q, 2 h
T1 construct: Three forms of human sRAGE, the extracellular domain of the receptor, were utilized; made in house; host or cells: Sf9 insect cells (baculovirus)
Procedure: “+” and “−” in (B) and (C) indicate whether the C1q was preincubated with monoclonal antibody or not, respectively. Results in (B) and (C) were mean±SD of three independent experiments. *p<0.01 in pair comparison indicated in the graph.
The final peroxidase activity was monitored at 492 nm with o-phenylenediamine dihydrochloride and hydrogen peroxide as substrates. […] Remaining binding sites were blocked with 5% non-fat milk in PBS. […] ECL Western blot detection kit was used to visualize the binding.

Mac-1 = target: T2, Mac-1 (Homo sapiens, UniProt P05107+P11215); experiment: Pull-down of sRAGE and C1q by immobilized Mac-1; format: binding; details: ½ PBS
T2 construct: purchased R&D Systems 4047-AM
Procedure: The plate was cooled down on ice for 10 min and washed quickly three-times with cold ½ PBS. […] Stripping of Western blot membranes was performed with buffer from Pierce according to the manufacturer's instructions.

[1] = system: RAGE-overexpressing cells; experiment: Steady state binding of free C1q to RAGE-overexpressing cells; format: cell-based, human; details: data not shown
From the text: RAGE expression was compared with another RAGE over-expressing cell line C6-RAGE, generated from rat astroglial C6 (Taguchi, 2000), with the result shown in FIG. 15A.
FIG. 10E was used (data not shown). […] The results using rat native serum with RAGE-transfected C6 cells produced similarly unremarkable results (results not shown).

U937 cells [2] = experiment: Phagocytosis of apoptotic Jurkat cells by differentiated U937 cells (FACS); format: cell-based, human; details: with addition of C1q; basal level 47%
Procedure: (A) Representative dot-plots of different cell populations separated by FACS after 2 h phagocytosis of apoptotic Jurkat cells: top-left U937 cells without phagocytosis; top-right phagocytic U937 cells labeled with percentage of total U937 population; bottom-right apoptotic Jurkat cells. (B) FACS analysis of phagocytosis of apoptotic Jurkat cells and effect of anti-RAGE and anti-CD11b antibodies. […] Results in (B) and (D) were mean±SD of three independent experiments. *p<0.01 in pair comparison indicated in the graph.
U937 cells (2×10^5/ml) were differentiated in standard medium containing 100 nM of vitamin D3 and 2 ng/ml of TGF-β1 at 37° C. in a 5% CO2 incubator for 2 days, with refreshment of vitamin D3 and TGF-β1 at 24 h. Differentiated U937 cells were harvested and re-suspended in Hank's Balanced Salt Solution (HESS, containing calcium and magnesium) at 2×10^6/ml, and then labeled with 5 μM of CM-DiI at 37° C. for 20 min. Labeling was ended by washing cells three times with HESS. The resulted cells were re-suspended at 4×10^5/ml in phagocytosis buffer (HESS plus 2 mM MgCl2 and 20 mM glutamate, pH 7.0).
To label Jurkat cells with CFSE (carboxyfluorescein succinimidyl ester), Jurkat cells were incubated with 1 μM of CFDA-SE in HESS for 30 min at 37° C. Harvested cells were resuspended (1×10^6/ml) in HESS containing 1 μM of staurosporine and incubated at 37° C. for 6 h. […]

complement system = experiment: Complement activation assay (C3a formation in human serum); format: biochemical
Procedure: Complement activation was monitored as C3a formation from proteolytic cleavage of C3 by ELISA kit.
C3a was assayed by ELISA kit.
Two different forms of each protein were tested, one was immobilized and the other was free molecule in serum (dissolved). For immobilized forms, 96-well MaxiSorp plate was coated with 50 μg/ml of each protein and blocked with BSA. Complement activation was performed as in (A).
After 1 h incubation, C3a levels in the human serum were determined as a marker of complement activation with human C3a EIA kit according to the manufacturer's instructions.

U937 cells [3] = experiment: Monocyte adhesion: U937 cells to C1q-coated plate; format: cell-based, human; details: 2 mM in medium, 24 h
Procedure: U-937 cells (2×10^5/ml) cultured in RPMI medium containing 10% fetal bovine serum, 100 units/ml of penicillin and 100 μg/ml of streptomycin were incubated with 100 nM of D3 and 2 ng/ml of TGF-β at 37° C. in a 5% CO2 incubator for 24 hours. After washing twice with serum-free RPMI medium, U-937 cells were suspended at concentration of 2×10^5/ml in serum-free RPMI medium containing 0 or 100 μg/ml of chicken anti-human RAGE IgY or 20 μg/ml of F(ab′)2 of mouse anti-human CD11b IgG1. As controls, 100 μg/ml of chicken anti-AGE IgY and 100 μg/ml of mouse IgG1 isotype control were used. […] The cells were cultured for 24 hours, then 50 μl of serum-free RPMI medium containing 15 μM of Calcein AM was added into each well to label U-937 cells with fluorescence for 1 hour. After three gentle washes with Hanks' balanced salt solution, the attached U-937 cells were photographed with regular light and fluorescent light, as shown in panel A. To quantitatively measure cell attachment, the plate was read with fluorescence plate reader with excitation at 485 nm and emission at 530 nm, as shown in panel B. The p value was calculated by student T-test with at least 4 samples for each condition. […]
(A) ARPE-19RAGE cells expressed high level of RAGE protein. Ten micrograms of total proteins from ARPE-19, ARPE-19RAGE and RAGE-transfected C6 cells (C6-RAGE) were analyzed for RAGE expression by Western blot. […]

U-937 cells = experiment: Cytotoxicity and activation/differentiation test on U-937 cells; format: cell-based, human
From the text: Phenolphthalein bisphosphate has been used in bacteria culture media as phosphatase substrate. […] Phagocytes are major protective cells in the body by ingesting harmful foreign particles, bacteria, and dead or dying cells. In an in vivo abdominal sepsis model caused by intraperitoneally injection with Escherichia coli, RAGE was involved in defense against the growth and/or dissemination of E. coli (The Journal of Infectious Diseases 2009, 200:765-773). In the presence of RAGE, E. coli numbers were much lower in the injection site as well as in major organs of the mouse. With the help of phenolphthalein bisphosphate, we expect that RAGE's function in this sepsis model could be enhanced further.

T1 sequence (P02745 23-245): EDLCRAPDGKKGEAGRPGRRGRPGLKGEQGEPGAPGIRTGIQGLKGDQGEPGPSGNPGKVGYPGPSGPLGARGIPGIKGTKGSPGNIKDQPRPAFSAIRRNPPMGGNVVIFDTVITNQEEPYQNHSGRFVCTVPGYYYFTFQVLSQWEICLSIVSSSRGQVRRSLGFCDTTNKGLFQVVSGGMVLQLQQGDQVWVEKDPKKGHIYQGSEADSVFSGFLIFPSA
T1 sequence (P02746 28-253): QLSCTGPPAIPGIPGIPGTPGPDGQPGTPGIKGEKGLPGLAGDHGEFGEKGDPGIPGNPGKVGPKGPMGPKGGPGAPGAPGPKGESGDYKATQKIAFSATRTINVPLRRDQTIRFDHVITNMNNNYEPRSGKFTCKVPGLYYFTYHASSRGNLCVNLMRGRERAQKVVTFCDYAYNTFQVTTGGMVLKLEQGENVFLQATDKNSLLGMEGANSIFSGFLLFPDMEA
T1 sequence (P02747 29-245): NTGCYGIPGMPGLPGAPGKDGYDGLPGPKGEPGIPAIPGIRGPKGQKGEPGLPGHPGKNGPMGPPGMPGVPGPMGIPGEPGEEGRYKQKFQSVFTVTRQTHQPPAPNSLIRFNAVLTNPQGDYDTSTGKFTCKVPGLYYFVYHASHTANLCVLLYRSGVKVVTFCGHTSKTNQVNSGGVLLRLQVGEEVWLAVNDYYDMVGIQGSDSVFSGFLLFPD
T2 sequence (P05107 23-700 limits assumed, other chains not shown): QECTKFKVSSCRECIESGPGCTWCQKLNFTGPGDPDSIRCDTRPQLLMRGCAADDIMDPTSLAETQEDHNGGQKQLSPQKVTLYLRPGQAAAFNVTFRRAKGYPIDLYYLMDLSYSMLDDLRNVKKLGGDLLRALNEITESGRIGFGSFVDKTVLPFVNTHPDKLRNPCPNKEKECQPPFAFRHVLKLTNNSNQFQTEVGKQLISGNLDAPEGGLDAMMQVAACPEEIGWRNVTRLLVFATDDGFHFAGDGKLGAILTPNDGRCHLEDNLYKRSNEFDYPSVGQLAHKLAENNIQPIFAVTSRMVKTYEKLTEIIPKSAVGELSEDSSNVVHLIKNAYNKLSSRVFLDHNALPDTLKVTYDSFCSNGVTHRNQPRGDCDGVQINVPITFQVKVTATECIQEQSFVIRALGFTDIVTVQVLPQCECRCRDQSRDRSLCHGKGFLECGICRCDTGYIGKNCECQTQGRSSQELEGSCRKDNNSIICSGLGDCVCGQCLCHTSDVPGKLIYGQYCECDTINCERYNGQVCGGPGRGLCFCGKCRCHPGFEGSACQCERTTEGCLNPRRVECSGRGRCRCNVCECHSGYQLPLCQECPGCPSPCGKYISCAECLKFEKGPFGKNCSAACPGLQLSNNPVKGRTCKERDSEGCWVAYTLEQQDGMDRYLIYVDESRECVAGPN

51003: known RAGE ligand; S100B obtained from Calbiochem [compound 51003]
ability of known RAGE ligands to block C1q binding to immobilized sRAGE (RAGE-C1q binding): unable to block C1q binding to immobilized sRAGE

AGE-BSA: glycated bovine serum albumin
ability of known RAGE ligands to block C1q binding to immobilized sRAGE (RAGE-C1q binding): unable to block C1q binding to immobilized sRAGE

C1q: human C1q protein (Quidel); first subcomponent of the C1 complex of the classical complement pathway
pull-down by immobilized Mac-1, proteins incubated separately (Mac-1): pulled down | pull-down by immobilized Mac-1, sRAGE and C1q co-incubated (Mac-1): increased | binding of free C1q to cells [1]: did not bind | phagocytic U937 cells population, of total U937 cells (U937 cells [2]): 66%

O=C1OC(c2ccc(OP(=O)([O-])[O-])cc2)(c2ccc(OP(=O)([O-])[O-])cc2)c2ccccc21.[Na+].[Na+].[Na+].[Na+] [phenolphthalein bisphosphate, Phenolphthalein bisphosphate tetrasodium salt]
effect on C1q binding to immobilized sRAGE (RAGE-C1q interaction) (RAGE-C1q binding): Phenolphthalein bisphosphate enhanced RAGE-C1q | effect on C1q binding to immobilized sRAGE (RAGE-C1q interaction) (RAGE-C1q binding; listed as Phenolphthalein Biphosphate): enhance RAGE-C1q interaction with dose-dependent manor | effect on complement activation of sRAGE (complement system; 1 mM compound, 2 μg sRAGE in 20 μl fresh human serum): without enhancement on complement activation | effect of compound on U-937 cells adhesion to C1q-coated plate (U937 cells [3]): significantly increase the adherent U-937 cells | effect of compound on U-937 cells adhesion to C1q-coated plate (U937 cells [3]; listed as Phenolphthalein bisphosphate): Phenolphthalein bisphosphate increased monocytes | activation or differentiation of U-937 cells (U-937 cells): couldn't activate or differentiate U-937 cells | cytotoxicity (U-937 cells; 2 mM): no cytotoxicity

amyloid β protein fragment 1-42 [A-beta]
ability of known RAGE ligands to block C1q binding to immobilized sRAGE (RAGE-C1q binding): unable to block C1q binding to immobilized sRAGE

Mac-1: recombinant form of human Mac-1 (CD11b/CD18), R&D Systems 4047-AM
complement activation in liquid phase (complement system; protein(s) preincubated in PBS then added to fresh human serum (FIG. 13B)): could not activate the complement system

Avastin: a humanized IgG1 antibody for VEGF
complement activation (C3a) activity relative to sRAGE (complement system; at every coating concentration): about 8 times

Source: patent US20160139120A1 (The Trustees of Columbia University in the City of New York, priority 2013, published 2016)
